Data reported in PubChem BioAssay (NCI).
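Compound exposure: 48 hours, 5 concentrations, 96-well plates. TGI: concentration producing complete growth inhibition.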

Legend:
Experiment in all cases: growth of human tumour cells (NCI), 48 h
HL-60(TB) leukemia = system: HL-60(TB) leukemia
SK-MEL-2 melanoma = system: SK-MEL-2 melanoma
SN12C renal = system: SN12C renal
UACC-257 melanoma = system: UACC-257 melanoma
TK-10 renal = system: TK-10 renal
HCC-2998 colon = system: HCC-2998 colon
HOP-92 NSCLC = system: HOP-92 NSCLC
SF-268 CNS = system: SF-268 CNS
OVCAR-5 ovarian = system: OVCAR-5 ovarian
LXFL 529 NSCLC = system: LXFL 529 NSCLC
OVCAR-8 ovarian = system: OVCAR-8 ovarian
OVCAR-3 ovarian = system: OVCAR-3 ovarian
ACHN renal = system: ACHN renal
K-562 leukemia = system: K-562 leukemia
DLD-1 colon = system: DLD-1 colon
CAKI-1 renal = system: CAKI-1 renal
MALME-3M melanoma = system: MALME-3M melanoma
KM20L2 colon = system: KM20L2 colon
U251 CNS = system: U251 CNS
RPMI-8226 leukemia = system: RPMI-8226 leukemia
IGROV1 ovarian = system: IGROV1 ovarian
SW-620 colon = system: SW-620 colon
786-0 renal = system: 786-0 renal
OVCAR-4 ovarian = system: OVCAR-4 ovarian
SNB-75 CNS = system: SNB-75 CNS
EKVX NSCLC = system: EKVX NSCLC
SR leukemia = system: SR leukemia
NCI-H23 lung = system: NCI-H23 lung
SNB-78 CNS = system: SNB-78 CNS
A549 NSCLC = system: A549 NSCLC
A498 renal = system: A498 renal
SK-OV-3 ovarian = system: SK-OV-3 ovarian
MOLT-4 leukemia = system: MOLT-4 leukemia
HT29 colon = system: HT29 colon
HOP-62 NSCLC = system: HOP-62 NSCLC
M14 melanoma = system: M14 melanoma
NCI-H460 lung = system: NCI-H460 lung
NCI-H226 lung = system: NCI-H226 lung
CCRF-CEM leukemia = system: CCRF-CEM leukemia
SK-MEL-5 melanoma = system: SK-MEL-5 melanoma
UO-31 renal = system: UO-31 renal
KM12 colon = system: KM12 colon
SF-295 CNS = system: SF-295 CNS
SK-MEL-28 melanoma = system: SK-MEL-28 melanoma
SNB-19 CNS = system: SNB-19 CNS
NCI-H522 lung = system: NCI-H522 lung
RXF 393 renal = system: RXF 393 renal
MDA-MB-435 = system: MDA-MB-435
MDA-MB-231 breast = system: MDA-MB-231 breast
BT-549 breast = system: BT-549 breast
HCT-116 colon = system: HCT-116 colon
MDA-N = system: MDA-N
NCI/ADR-RES ovarian = system: NCI/ADR-RES ovarian
UACC-62 melanoma = system: UACC-62 melanoma
COLO 205 colon = system: COLO 205 colon
PC-3 prostate = system: PC-3 prostate
MCF7 breast = system: MCF7 breast
LOX IMVI melanoma = system: LOX IMVI melanoma
HS 578T breast = system: HS 578T breast
DU-145 prostate = system: DU-145 prostate
HCT-15 colon = system: HCT-15 colon
T-47D breast = system: T-47D breast
SF-539 CNS = system: SF-539 CNS

COc1cccc([C@@]2(O)c3c(ccc(O)c3OC)[C@H]2OC)c1OC
TGI (HL-60(TB) leukemia): 57.3 µM | TGI (SK-MEL-2 melanoma): > 100 µM | TGI (SN12C renal): > 100 µM | TGI (UACC-257 melanoma): > 100 µM | TGI (TK-10 renal): 93.6 µM | TGI (HCC-2998 colon): > 100 µM | TGI (HOP-92 NSCLC): > 100 µM | TGI (SF-268 CNS): > 100 µM | TGI (OVCAR-5 ovarian): > 100 µM | TGI (LXFL 529 NSCLC): 62.1 µM | TGI (OVCAR-8 ovarian): > 100 µM | TGI (OVCAR-3 ovarian): > 100 µM | TGI (ACHN renal): > 100 µM | TGI (K-562 leukemia): > 100 µM | TGI (DLD-1 colon): > 100 µM | TGI (CAKI-1 renal): 78.4 µM | TGI (MALME-3M melanoma): > 100 µM | TGI (KM20L2 colon): > 100 µM | TGI (U251 CNS): > 100 µM | TGI (RPMI-8226 leukemia): > 100 µM | TGI (IGROV1 ovarian): > 100 µM | TGI (SW-620 colon): > 100 µM | TGI (786-0 renal): 30.3 µM | TGI (OVCAR-4 ovarian): > 100 µM | TGI (SNB-75 CNS): > 100 µM | TGI (EKVX NSCLC): > 100 µM | TGI (SR leukemia): > 100 µM | TGI (NCI-H23 lung): > 100 µM | TGI (SNB-78 CNS): > 100 µM | TGI (A549 NSCLC): > 100 µM | TGI (A498 renal): > 100 µM | TGI (SK-OV-3 ovarian): > 100 µM | TGI (MOLT-4 leukemia): > 100 µM | TGI (HT29 colon): > 100 µM | TGI (HOP-62 NSCLC): > 100 µM | TGI (M14 melanoma): > 100 µM | TGI (NCI-H460 lung): > 100 µM | TGI (NCI-H226 lung): > 100 µM | TGI (CCRF-CEM leukemia): > 100 µM | TGI (SK-MEL-5 melanoma): > 100 µM | TGI (UO-31 renal): > 100 µM | TGI (KM12 colon): > 100 µM | TGI (SF-295 CNS): > 100 µM | TGI (SK-MEL-28 melanoma): > 100 µM | TGI (SNB-19 CNS): > 100 µM | TGI (NCI-H522 lung): 52.2 µM

c1ccc2cc(CN3CCC(C4CCN(Cc5ccc6ccccc6c5)CC4)CC3)ccc2c1
TGI (HL-60(TB) leukemia): 4.45 µM | TGI (RXF 393 renal): 8.51 µM | TGI (SK-MEL-2 melanoma): 4.87 µM | TGI (SN12C renal): 44.5 µM | TGI (UACC-257 melanoma): 3.68 µM | TGI (TK-10 renal): 13.1 µM | TGI (HCC-2998 colon): 3.13 µM | TGI (HOP-92 NSCLC): 12.2 µM | TGI (SF-268 CNS): 25.8 µM | TGI (MDA-MB-435): 3.09 µM | TGI (OVCAR-5 ovarian): 24.9 µM | TGI (OVCAR-8 ovarian): 17.9 µM | TGI (OVCAR-3 ovarian): 11.1 µM | TGI (MDA-MB-231 breast): 22.1 µM | TGI (ACHN renal): 17 µM | TGI (BT-549 breast): 27.4 µM | TGI (K-562 leukemia): > 100 µM | TGI (HCT-116 colon): 18.4 µM | TGI (CAKI-1 renal): 15 µM | TGI (MALME-3M melanoma): 3.71 µM | TGI (MDA-N): 3.91 µM | TGI (U251 CNS): 8.49 µM | TGI (RPMI-8226 leukemia): 7.44 µM | TGI (IGROV1 ovarian): 22.5 µM | TGI (SW-620 colon): 15.6 µM | TGI (786-0 renal): 11.1 µM | TGI (OVCAR-4 ovarian): 21.7 µM | TGI (NCI/ADR-RES ovarian): 22.1 µM | TGI (SNB-75 CNS): 6.8 µM | TGI (UACC-62 melanoma): 3.91 µM | TGI (EKVX NSCLC): 29.6 µM | TGI (COLO 205 colon): 3.96 µM | TGI (SR leukemia): 15.6 µM | TGI (NCI-H23 lung): 26.9 µM | TGI (PC-3 prostate): 22.9 µM | TGI (A549 NSCLC): 17.1 µM | TGI (A498 renal): 26.2 µM | TGI (SK-OV-3 ovarian): 22.4 µM | TGI (MOLT-4 leukemia): 33.3 µM | TGI (HT29 colon): 6.42 µM | TGI (HOP-62 NSCLC): 7.84 µM | TGI (M14 melanoma): 3.71 µM | TGI (MCF7 breast): 8.66 µM | TGI (NCI-H460 lung): 11 µM | TGI (LOX IMVI melanoma): 13.2 µM | TGI (NCI-H226 lung): 33.1 µM | TGI (CCRF-CEM leukemia): > 43.4 µM | TGI (SK-MEL-5 melanoma): 3.38 µM | TGI (HS 578T breast): 6.6 µM | TGI (UO-31 renal): 3.03 µM | TGI (KM12 colon): 7.99 µM | TGI (SF-295 CNS): 3.74 µM | TGI (DU-145 prostate): 38.2 µM | TGI (SK-MEL-28 melanoma): 3.93 µM | TGI (SNB-19 CNS): 27.2 µM | TGI (HCT-15 colon): 15.1 µM | TGI (NCI-H522 lung): 4.28 µM | TGI (T-47D breast): > 22.8 µM | TGI (SF-539 CNS): 4.15 µM
